What is called IC50 is the point on the concentration scale where inhibition reaches its midpoint.

The structures appear in SMILES notation.

16 compounds from patent US12485132B2, “GPX4 inhibitors and senolytic compounds and uses thereof” (Rubedo Life Sciences, Inc., priority 2023, dated 2025) can be followed below.

This test has as its system senescent HEPG2 cells. The test can be described thus: Senescence assay: viability of senescent HEPG2 cells. The class given is cell-based. Particulars: Homo sapiens, 24-72 hours incubation, viability by CellTiter-Glo or XTT, read-out: Absolute IC50 average HEPG2_SEN IC50. The protocol:
Cells were maintained in DMEM media (high glucose, 4 mM L-glutamine, no sodium pyruvate) supplemented with 10% fetal bovine serum in a humidified incubator at 37° C. with 5% carbon dioxide. Senescence was induced via treatment with a sublethal concentration of chemotherapy (bleomycin, gemcitabine, doxorubicin, 5-fluorouridine), followed by a rest period without chemotherapy similarly to what is reported by others in the field (e.g., Aoshiba et al., 2003 Eur Respir J 22:436-443). Senescence was qualified by low EdU (5-ethynyl-2′-deoxyuridine) incorporation and high SA-β-Gal (senescence-associated beta-galactosidase) staining compared to proliferating untreated cells. Senescent cells were plated into 96-well plates at a density of 5-15,000 cells/well. The next day, compounds were added in duplicate across ten different concentrations spanning roughly four Log10 units. Cells were incubated with the compounds for 24-72 hours, at which point viability was quantified using CellTiter-Glo (Promega) or XTT (R&D Systems). The viability for treated cells was determined relative to untreated control cells. The log of the compound concentration vs. normalized mean viability was fit to a four parameters Hill function with variable slope. The bottom was constrained to be greater than zero. The X mean value for Y=50 was interpolated to determine the absolute IC50. The results in Table 2 indicate that many of the compounds are active in cells and can induce a dose dependent decrease in the viability of senescent HEPG2 and A549 cells.
For orientation: ATP-based viability assays read luminescence as a measure of living cells.
In the case of `C#CC(F)(F)[C@]1(O)CC[C@H]2[C@@H]3CCC4=C/C(=N/OCCOC)CCC4=C3[C@@H](c3ccc(C4CC4)cc3)C[C@@]21C` [Compound 3, (8S,11R,13S,14S,17S,E)-11-(4-cyclopropylphenyl)-17-(1,1-difluoroprop-2-yn-1-yl)-17-hydroxy-13-methyl-1,2,6,7,8,11,12,13,14,15,16,17-dodecahydro-3H-cyclopenta[a]phenanthren-3-one O-(2-methoxyethyl)oxime], the IC50 is 0.01 to 0.1 µM.
The figure for `C#CC(F)(F)[C@]1(O)CC[C@H]2[C@@H]3CCC4=C/C(=N/NC(=O)O[C@@H]5O[C@@H](C)[C@@H](O)[C@@H](O)[C@@H]5O)CCC4=C3[C@H](c3ccc(C4CC4)cc3)C[C@@]21C` [Compound 31, (2S,3S,4R,5S,6S)-3,4,5-trihydroxy-6-methyltetrahydro-2H-pyran-2-yl (E)-2-((8S,11S,13S,14S,17S)-11-(4-cyclopropylphenyl)-17-(1,1-difluoroprop-2-yn-1-yl)-17-hydroxy-13-methyl-1,2,6,7,8,11,12,13,14,15,16,17-dodecahydro-3H-cyclopenta[a]phenanthren-3-ylidene)hydrazine-1-carboxylate] is 0.01 to 0.1 µM; for `C#CC(F)(F)[C@]1(O)CC[C@H]2[C@@H]3CCC4=C/C(=N/N)CCC4=C3[C@H](c3ccc(C4CC4)cc3)C[C@@]21C` [Compound 27, (8S,11S,13S,14S,17S,E)-11-(4-cyclopropylphenyl)-17-(1,1-difluoroprop-2-yn-1-yl)-3-hydrazineylidene-13-methyl-2,3,6,7,8,11,12,13,14,15,16,17-dodecahydro-1H-cyclopenta[a]phenanthren-17-ol] it is 0.01 to 0.1 µM.
`C#CC(F)(F)[C@]1(O)CC[C@H]2[C@@H]3CCC4=C/C(=N/NC(=O)NCC5CC5)CCC4=C3[C@H](c3ccc(C4CC4)cc3)C[C@@]21C` [Compound 50, (E)-N-(cyclopropylmethyl)-2-((8S,11S,13S,14S,17S)-11-(4-cyclopropylphenyl)-17-(1,1-difluoroprop-2-yn-1-yl)-17-hydroxy-13-methyl-1,2,6,7,8,11,12,13,14,15,16,17-dodecahydro-3H-cyclopenta[a]phenanthren-3-ylidene)hydrazine-1-carboxamide]: the IC50 lay within 0.0001 to 0.01 µM.
The figure for `C#CC(F)(F)[C@]1(O)CC[C@H]2[C@@H]3CCC4=C/C(=N/NC(=O)OCC)CCC4=C3[C@H](c3ccc(C4CC4)cc3)C[C@@]21C` [Compound 40, ethyl (E)-2-((8S,11S,13S,14S,17S)-11-(4-cyclopropylphenyl)-17-(1,1-difluoroprop-2-yn-1-yl)-17-hydroxy-13-methyl-1,2,6,7,8,11,12,13,14,15,16,17-dodecahydro-3H-cyclopenta[a]phenanthren-3-ylidene)hydrazine-1-carboxylate] is 0.0001 to 0.01 µM; for `C#CC(F)(F)[C@]1(O)CC[C@H]2[C@@H]3CCC4=C/C(=N/OCCOCCOCCOC)CCC4=C3[C@@H](c3ccc(C4CC4)cc3)C[C@@]21C` [Compound 15, (8S,11R,13S,14S,17S,E)-11-(4-cyclopropylphenyl)-17-(1,1-difluoroprop-2-yn-1-yl)-17-hydroxy-13-methyl-1,2,6,7,8,11,12,13,14,15,16,17-dodecahydro-3H-cyclopenta[a]phenanthren-3-one O-(2-(2-(2-methoxyethoxy)ethoxy)ethyl)oxime] it is 0.01 to 0.1 µM.
With `C#CC(F)(F)[C@]1(O)CC[C@H]2[C@@H]3CCC4=CC(=NOCCOCCOCCOCCNC(=O)CCCCC5SCC6NC(=O)NC65)CCC4=C3[C@@H](c3ccc(C4CC4)cc3)C[C@@]21C` (stereo partly shown) [compound 21], the IC50 lay in the range of 0.0001 to 0.01 µM.
On to `C#CC(F)(F)[C@]1(O)CC[C@H]2[C@@H]3CCC4=C/C(=N/NC(=O)COC)CCC4=C3[C@H](c3ccc(C4CC4)cc3)C[C@@]21C` [Compound 36, N′-((8S,11S,13S,14S,17S,E)-11-(4-cyclopropylphenyl)-17-(1,1-difluoroprop-2-yn-1-yl)-17-hydroxy-13-methyl-1,2,6,7,8,11,12,13,14,15,16,17-dodecahydro-3H-cyclopenta[a]phenanthren-3-ylidene)-2-methoxyacetohydrazide], for which the IC50 lay in the range of 0.0001 to 0.01 µM.
The result for `C#CC(F)(F)[C@]1(O)CC[C@H]2[C@@H]3CCC4=C/C(=N/NC(=O)CO)CCC4=C3[C@H](c3ccc(C4CC4)cc3)C[C@@]21C` [Compound 37, N′-((8S,11S,13S,14S,17S,E)-11-(4-cyclopropylphenyl)-17-(1,1-difluoroprop-2-yn-1-yl)-17-hydroxy-13-methyl-1,2,6,7,8,11,12,13,14,15,16,17-dodecahydro-3H-cyclopenta[a]phenanthren-3-ylidene)-2-hydroxyacetohydrazide] reads 0.0001 to 0.01 µM.
With `C#CC(F)(F)[C@]1(O)CC[C@H]2[C@@H]3CCC4=C/C(=N/NC(=O)O[C@@H]5O[C@@H](C)[C@@H](OC(C)=O)[C@@H](OC(C)=O)[C@@H]5OC(C)=O)CCC4=C3[C@H](c3ccc(C4CC4)cc3)C[C@@]21C` [Compound 30, (2S,3S,4R,5R,6S)-2-((2-((8S,11S,13S,14S,17S,E)-11-(4-cyclopropylphenyl)-17-(1,1-difluoroprop-2-yn-1-yl)-17-hydroxy-13-methyl-1,2,6,7,8,11,12,13,14,15,16,17-dodecahydro-3H-cyclopenta[a]phenanthren-3-ylidene)hydrazine-1-carbonyl)oxy)-6-methyltetrahydro-2H-pyran-3,4,5-triyl triacetate], the IC50 is 0.0001 to 0.01 µM.
The figure for `C#CC(F)(F)[C@]1(O)CC[C@H]2[C@@H]3CCC4=C/C(=N\O[C@H]5C[C@H](O)[C@H](O)[C@H](C)O5)CCC4=C3[C@H](c3ccc(C4CC4)cc3)C[C@@]21C` [Compound 6, (8S,11S,13S,14S,17S,Z)-11-(4-cyclopropylphenyl)-17-(1,1-difluoroprop-2-yn-1-yl)-17-hydroxy-13-methyl-1,2,6,7,8,11,12,13,14,15,16,17-dodecahydro-3H-cyclopenta[a]phenanthren-3-one O-((2S,4S,5S,6S)-4,5-dihydroxy-6-methyltetrahydro-2H-pyran-2-yl) oxime] is 0.0001 to 0.01 µM; for `C#CC(F)(F)[C@]1(O)CC[C@H]2[C@@H]3CCC4=C/C(=N/O[C@@H]5O[C@@H](C)[C@@H](O)[C@@H](O)[C@@H]5O)CCC4=C3[C@@H](c3ccc(C4CC4)cc3)C[C@@]21C` [Compound 20, (8S,11R,13S,14S,17S,E)-11-(4-cyclopropylphenyl)-17-(1,1-difluoroprop-2-yn-1-yl)-17-hydroxy-13-methyl-1,2,6,7,8,11,12,13,14,15,16,17-dodecahydro-3H-cyclopenta[a]phenanthren-3-one O-((2S,3S,4R,5S,6S)-3,4,5-trihydroxy-6-methyltetrahydro-2H-pyran-2-yl) oxime] it is 0.0001 to 0.01 µM; for `C#CC(F)(F)[C@]1(O)CC[C@H]2[C@@H]3CCC4=C/C(=N/O[C@H]5C[C@H](O)[C@H](O)[C@H](C)O5)CCC4=C3[C@H](c3ccc(C4CC4)cc3)C[C@@]21C` [Compound 5, (8S,11S,13S,14S,17S,E)-11-(4-cyclopropylphenyl)-17-(1,1-difluoroprop-2-yn-1-yl)-17-hydroxy-13-methyl-1,2,6,7,8,11,12,13,14,15,16,17-dodecahydro-3H-cyclopenta[a]phenanthren-3-one O-((2S,4S,5S,6S)-4,5-dihydroxy-6-methyltetrahydro-2H-pyran-2-yl) oxime] it is 0.01 to 0.1 µM.
As for `C#CC(F)(F)[C@]1(O)CC[C@H]2[C@@H]3CCC4=C/C(=N/NC(N)=O)CCC4=C3[C@H](c3ccc(C4CC4)cc3)C[C@@]21C` [Compound 41, (E)-2-((8S,11S,13S,14S,17S)-11-(4-cyclopropylphenyl)-17-(1,1-difluoroprop-2-yn-1-yl)-17-hydroxy-13-methyl-1,2,6,7,8,11,12,13,14,15,16,17-dodecahydro-3H-cyclopenta[a]phenanthren-3-ylidene)hydrazine-1-carboxamide], the IC50 fell in the range of 0.0001 to 0.01 µM.
With `C#CC(F)(F)[C@]1(O)CC[C@H]2[C@@H]3CCC4=C/C(=N\OCCOC)CCC4=C3[C@@H](c3ccc(C4CC4)cc3)C[C@@]21C` [Compound 2, (8S,11R,13S,14S,17S,Z)-11-(4-cyclopropylphenyl)-17-(1,1-difluoroprop-2-yn-1-yl)-17-hydroxy-13-methyl-1,2,6,7,8,11,12,13,14,15,16,17-dodecahydro-3H-cyclopenta[a]phenanthren-3-one O-(2-methoxyethyl)oxime], the IC50 is 0.01 to 0.1 µM.
As for `C#CC(F)(F)[C@]1(O)CC[C@H]2[C@@H]3CCC4=C/C(=N/NC(=O)O[C@@H]5O[C@H](COC(C)=O)[C@H](OC(C)=O)[C@H](OC(C)=O)[C@H]5OC(C)=O)CCC4=C3[C@H](c3ccc(C4CC4)cc3)C[C@@]21C` [Compound 28, (2R,3S,4S,5R,6S)-2-(acetoxymethyl)-6-((2-((8S,11S,13S,14S,17S,E)-11-(4-cyclopropylphenyl)-17-(1,1-difluoroprop-2-yn-1-yl)-17-hydroxy-13-methyl-1,2,6,7,8,11,12,13,14,15,16,17-dodecahydro-3H-cyclopenta[a]phenanthren-3-ylidene)hydrazine-1-carbonyl)oxy)tetrahydro-2H-pyran-3,4,5-triyl triacetate], the IC50 lay within 0.01 to 0.1 µM.
